The text below walks through data of patent publication US20130122541A1, “MICROORGANISM PRODUCTION OF HIGH-VALUE CHEMICAL PRODUCTS, AND RELATED COMPOSITIONS, METHODS AND SYSTEMS” (The Regents of the University of Colorado, priority 2010, published 2013).

Common to all, as to assay: microbe, parasite or virus in culture
Assay [1] deals with E. coli. It counts as cell-based. As to conditions: for % Increase Over Control: increase of 3-HP MIC over BW25113 in M9 without supplements, M9 media with the named supplement(s). On the procedure: (§1) For MIC evaluations, the final results are expressed in chemical agent concentrations determined by analysis of the stock solution by HPLC (i.e., see Subsection IIIb).
The minimum inhibitory concentration (MIC) was determined aerobically in a 96 well-plate format. […] Media supplements were added according to levels reported in the Supplements Table, where specified. Overnight cultures of strains were grown in triplicate in 5 mL LB (with antibiotic where appropriate). A 1% (v/v) inoculum was introduced into a 5 ml culture of M9 minimal media.

Assay [2] concerns E. coli. It counts as cell-based. As to conditions: anaerobic; for % Increase Over Control: 3-HP MIC with named supplement(s) vs BW25113 in M9 without supplement; for MIC Assay Result (g/L 3-HP): MIC of 3-HP, BW25113, M9 media plus the named supplement(s), 24-hour. On the procedure: as §1
The minimum inhibitory concentration (MIC) was determined anaerobically in a 96 well-plate format. […] Media supplements were added according to levels reported in the Supplements Table, where specified. Overnight cultures of strains were grown in triplicate in 5 mL LB (with antibiotic where appropriate). A 1% (v/v) inoculum was introduced into a 5 ml culture of M9 minimal media.

The test system of assay [3] is Yeast strains (S288C background). The format is cell-based, Saccharomyces cerevisiae. Particulars: anaerobic; for % Increase Over Control: 3-HP MIC with named supplement(s) vs S288C in SD without supplement; for average MIC Assay Result (g/L 3-HP): MIC of 3-HP; for average MIC Assay Result (g/L 3-HP) / MIC: S288C, SD media plus the named supplement(s); for MIC: Saccharomyces cerevisiae, read-out: Average MIC Assay Result (g/L 3-HP), MIC of 3-HP. On the procedure:
The minimum inhibitory concentration (MIC) was determined anaerobically in a 96 well-plate format. […] A 1% (v/v) inoculum was introduced into a 5 ml culture of SD minimal media without vitamins. After the cells reached mid-exponential phase, the culture was diluted to an OD600 of 0.200. The cells were further diluted 1:5 and a 10 μL aliquot was used to inoculate each well of a 96 well plate (˜10^4 cells per well) to total volume of 100 uL. […] Plates were incubated for 72 hours at 30 C. […] Plates were sealed in biobag anaerobic chambers that contained gas generators for anaerobic conditions and incubated for 72 hours at 30 C.

Where [4] appears, read: MIC of 3-HP for strain BW25113, M9 media with the named supplement(s), aerobic, 24-hour MIC evaluation.

Where two headings read alike, the source gives them in different places.

On to `NCCCC[C@H](N)C(=O)O` [Lysine (D)], for which the “average MIC Assay Result (g/L 3-HP)” value with E. coli [1] (setting [4]) was found to be 37 g/L 3-HP; in assay [3], 45 g/L. The entries for the “% Increase Over Control” value (in the assay on E. coli [1] (aerobic); with E. coli [2]; in assay [3]) were 33%, 39% and 20%, respectively. Besides, the “MIC Assay Result (g/L 3-HP)” value in the assay on E. coli [2] amounted to 41.7 g/L.
In the case of `C[C@@H](O)[C@H](N)C(=O)O` [Threonine (B)], in the assay with E. coli [1] (setting [4]), the “average MIC Assay Result (g/L 3-HP)” value amounted to 32 g/L 3-HP. In assay [3], the “% Increase Over Control” value came to 2% and the MIC was 38 g/L.
For `N[C@@H](CCO)C(=O)O` [Homoserine (B)], the “average MIC Assay Result (g/L 3-HP)” value in the assay on E. coli [1] (setting [4]) was 35 g/L 3-HP.
For the compound `O=C(O)O` [Bicarbonate (C)], the “average MIC Assay Result (g/L 3-HP)” value in the assay with E. coli [1] (setting [4]) came to 44 g/L 3-HP; in assay [3], 90 g/L. Besides, the “% Increase Over Control” value with E. coli [1] (aerobic) was determined as 59%; in assay [3] it was 140%.
For the compound `N[C@@H](Cc1ccccc1)C(=O)O` [Phenylalanine (A)], the “average MIC Assay Result (g/L 3-HP)” value with E. coli [1] (setting [4]) turned out to be 32 g/L 3-HP. Also, the “% Increase Over Control” value turned out to be 17% with E. coli [1] (aerobic) and 2% in assay [3]. The MIC in assay [3] was 38 g/L.
On to `CC[C@H](C)[C@H](N)C(=O)O` [Isoleucine (B)], for which the “average MIC Assay Result (g/L 3-HP)” value in the assay with E. coli [1] (setting [4]) stood at 32 g/L 3-HP; in assay [3], 38 g/L. Further, the “% Increase Over Control” value came out at 17% in the assay on E. coli [1] (aerobic) and 2% in assay [3].
Turning to `NCCCCCN` [Cadaverine (C)], the “average MIC Assay Result (g/L 3-HP)” value with E. coli [1] (setting [4]) was 35 g/L 3-HP. Besides, in assay [3], the “% Increase Over Control” value was 60% and the MIC came out at 60 g/L.
For `N[C@@H](CO)C(=O)O` [Serine (B)], the entries for the “average MIC Assay Result (g/L 3-HP)” value (in the assay with E. coli [1] (setting [4]); in assay [3]) were 32 g/L 3-HP and 45 g/L, respectively. Besides, the figures for the “% Increase Over Control” value (in the assay with E. coli [1] (aerobic); in the assay with E. coli [2]; in assay [3]) were 17%, 7% and 20%, respectively. In the assay on E. coli [2], the “MIC Assay Result (g/L 3-HP)” value worked out at 32.1 g/L.
Consider `NC(CCS)C(=O)O` (stereo not drawn) [Homocysteine (B)], for which the “average MIC Assay Result (g/L 3-HP)” value in the assay on E. coli [1] (setting [4]) is recorded as 30 g/L 3-HP; in assay [3] it was 40 g/L. The “% Increase Over Control” value worked out at 9% with E. coli [1] (aerobic) and 7% in assay [3].
Take `NCCCCN` [Putrescine (C)]: in the assay on E. coli [1], the “average MIC Assay Result (g/L 3-HP)” value is reported as 30 g/L 3-HP.
As for `Nc1ccc(C(=O)O)cc1` [p-aminobenzoate (A)], the “average MIC Assay Result (g/L 3-HP)” value in the assay on E. coli [1] (setting [4]) was 35 g/L 3-HP. Also, in the assay on E. coli [1] (aerobic), the “% Increase Over Control” value amounted to 27%. Also, in the assay with E. coli [2], the “% Increase Over Control” value came out at 33% and the “MIC Assay Result (g/L 3-HP)” value amounted to 40.0 g/L.
Take `NCCC[C@H](N)C(=O)O` [Ornithine (C)]: the “average MIC Assay Result (g/L 3-HP)” value in the assay with E. coli [1] (setting [4]) was 30 g/L 3-HP. For the same compound, in the assay with E. coli [1] (aerobic), the “% Increase Over Control” value amounted to 9%.
Regarding `NCCCCNCCCN` [Spermidine (C)], the “average MIC Assay Result (g/L 3-HP)” value with E. coli [1] (setting [4]) was 40 g/L 3-HP. Also, in assay [3], the “% Increase Over Control” value is 60% and the MIC amounted to 60 g/L.
Consider `NC(=O)CC[C@H](N)C(=O)O` [Glutamine (C)], for which the “average MIC Assay Result (g/L 3-HP)” value in the assay on E. coli [1] (setting [4]) was 30 g/L 3-HP. The “% Increase Over Control” value with E. coli [1] (aerobic) came out at 9%.
As to `Nc1nc(=O)c2c([nH]1)NC[C@@H](CNc1ccc(C(=O)N[C@@H](CCC(=O)O)C(=O)O)cc1)N2` [Tetrahydrofolate (A)], in the assay with E. coli [1] (setting [4]), the “average MIC Assay Result (g/L 3-HP)” value worked out at 30 g/L 3-HP. The “% Increase Over Control” value in the assay with E. coli [1] (aerobic) was 9%. Besides, in the assay on E. coli [2], the “% Increase Over Control” value stood at 33% and the “MIC Assay Result (g/L 3-HP)” value is listed as 40.0 g/L.
